Values of other authors as cited in patent US20070077261A1 (priority 2005, published 2007).

Conditions: amount dissolving in 2 ml of glycerin; The Merck Index, 11th Edition

solubility of urea in glycerin: 1 gram
SMILES: NC(N)=O [urea]
